Data reported in US12539292B2, “BRM targeting compounds and associated methods of use” (Arvinas Operations, Inc., priority 2018, dated 2026).
Where two headings read alike, the source gives them in different places.

Target: T1, BRM (Homo sapiens, UniProt P51531)
T1 construct: In-Cell Western Screen of BRM Degradation in SW1573 Cells; endogenous in cells; host or cells: SW1573
Experiment: In-cell Western screen of BRM degradation in SW1573 cells (Dmax and DC50)
Type: cell-based
Method in brief: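 SW1573, overnight cpd exposure (18-20 h), 0.1% DMSO final. PFA fix, 0.5% Triton permeabilization, block; IR secondaries at 800/680 nm. Odyssey read → Dmax, DC50.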

[1] = BRM degradation, SW1573 cells, read-out: DC50
[2] = BRM degradation, SW1573 cells, when tested at the top concentration of between 0.3 and 10 μM, read-out: Dmax (%) (% degraded)
[3] = SW1573, % degraded, when tested at the top concentration of between 0.3 and 10 μM, read-out: BRM Dmax (%)
[4] = BRM degradation, SW1573 cells, Table 2D, read-out: *DC50

T1 sequence (P51531 whole entry): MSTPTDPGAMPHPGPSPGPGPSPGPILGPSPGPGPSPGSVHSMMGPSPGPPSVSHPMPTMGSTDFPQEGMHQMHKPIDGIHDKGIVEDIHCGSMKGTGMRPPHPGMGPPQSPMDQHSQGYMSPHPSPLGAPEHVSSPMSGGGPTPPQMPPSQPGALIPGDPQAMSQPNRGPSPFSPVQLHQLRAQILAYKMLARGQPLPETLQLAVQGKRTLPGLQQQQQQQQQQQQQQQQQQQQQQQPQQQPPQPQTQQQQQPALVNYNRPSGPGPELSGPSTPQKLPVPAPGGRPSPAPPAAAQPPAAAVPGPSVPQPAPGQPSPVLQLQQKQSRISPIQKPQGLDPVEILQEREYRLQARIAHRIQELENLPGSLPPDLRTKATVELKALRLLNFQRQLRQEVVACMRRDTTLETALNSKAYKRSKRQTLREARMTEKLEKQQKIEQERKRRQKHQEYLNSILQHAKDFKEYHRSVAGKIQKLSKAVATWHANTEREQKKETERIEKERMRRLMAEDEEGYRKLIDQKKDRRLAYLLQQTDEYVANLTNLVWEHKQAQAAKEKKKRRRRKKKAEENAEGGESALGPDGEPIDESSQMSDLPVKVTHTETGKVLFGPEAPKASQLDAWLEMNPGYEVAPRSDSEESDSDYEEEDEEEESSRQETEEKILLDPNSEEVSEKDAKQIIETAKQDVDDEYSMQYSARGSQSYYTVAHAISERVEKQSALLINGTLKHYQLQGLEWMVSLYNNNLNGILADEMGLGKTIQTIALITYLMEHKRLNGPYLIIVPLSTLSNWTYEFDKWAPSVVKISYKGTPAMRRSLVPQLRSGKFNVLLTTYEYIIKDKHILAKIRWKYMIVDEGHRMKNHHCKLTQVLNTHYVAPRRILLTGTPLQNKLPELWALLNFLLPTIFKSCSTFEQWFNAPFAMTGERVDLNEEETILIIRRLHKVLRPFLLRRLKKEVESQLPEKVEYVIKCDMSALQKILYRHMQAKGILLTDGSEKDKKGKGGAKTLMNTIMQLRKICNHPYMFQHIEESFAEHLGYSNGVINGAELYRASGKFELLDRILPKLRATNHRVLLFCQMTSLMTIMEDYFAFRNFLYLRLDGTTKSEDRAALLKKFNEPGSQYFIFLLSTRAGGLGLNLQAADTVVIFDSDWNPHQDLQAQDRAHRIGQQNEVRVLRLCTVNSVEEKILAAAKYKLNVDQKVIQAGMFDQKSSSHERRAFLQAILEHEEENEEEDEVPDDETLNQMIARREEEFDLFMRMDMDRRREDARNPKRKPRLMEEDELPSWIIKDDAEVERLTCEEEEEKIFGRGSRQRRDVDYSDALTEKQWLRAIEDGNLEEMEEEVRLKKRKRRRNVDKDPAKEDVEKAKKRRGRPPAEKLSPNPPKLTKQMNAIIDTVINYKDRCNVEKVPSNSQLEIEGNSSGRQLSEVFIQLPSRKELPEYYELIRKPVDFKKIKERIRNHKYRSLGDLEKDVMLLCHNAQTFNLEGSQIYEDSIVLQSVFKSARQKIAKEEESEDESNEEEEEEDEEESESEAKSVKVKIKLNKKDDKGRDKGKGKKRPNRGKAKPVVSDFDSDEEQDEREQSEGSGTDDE

SMILES | DC50 [1] [nM] | Dmax [2] [%] | further results
Cc1ncsc1-c1ccc([C@H](C)NC(=O)[C@@H]2C[C@@H](O)CN2C(=O)[C@@H](NC(=O)COCCCc2ccc(C(C)n3cc(-c4cc(-c5ccccc5O)nnc4N)cn3)cn2)C(C)(C)C)cc1 (stereo partly drawn) [compound 61, (2S,4R)-1-((2S)-2-(2-(3-(5-(1-(4-(3-amino-6-(2-hydroxyphenyl)pyridazin-4-yl)-1H-pyrazol-1-yl)ethyl)pyridin-2-yl)propoxy)acetamido)-3,3-dimethylbutanoyl)-4-hydroxy-N-((S)-1-(4-(4-methylthiazol-5-yl)phenyl)ethyl)pyrrolidine-2-carboxamide] | 10 to 30 | > 75 | –
CC(=O)N1CC(NC(=O)[C@@H]2C[C@@H](O)CN2C(=O)[C@@H](c2cc(OCCN3CCN(CCOc4cc(N5C6CCC5CN(c5cc(-c7ccccc7O)nnc5N)C6)ccn4)CC3)no2)C(C)C)(c2ccc(-c3scnc3C)cc2)C1 [compound 127, (2S,4R)-N-(1-acetyl-3-(4-(4-methylthiazol-5-yl)phenyl)azetidin-3-yl)-1-((2R)-2-(3-(2-(4-(2-((4-(3-(3-amino-6-(2-hydroxyphenyl)pyridazin-4-yl)-3,8-diazabicyclo[3.2.1]octan-8-yl)pyridin-2-yl)oxy)ethyl)piperazin-1-yl)ethoxy)isoxazol-5-yl)-3-methylbutanoyl)-4-hydroxypyrrolidine-2-carboxamide] | 10 to 30 | > 75 | –
Cc1ncsc1-c1ccc([C@H](C)NC(=O)[C@@H]2C[C@@H](O)CN2C(=O)C(c2cc(O[C@H]3C[C@H](N4CCC(O[C@H]5C[C@H](Oc6cc(N7C8CCC7CN(c7cc(-c9ccccc9O)nnc7N)C8)ccn6)C5)CC4)C3)no2)C(C)C)cc1 (stereo partly drawn) [compound 411, (2S,4R)-1-(2-(3-((1R,3S)-3-(4-((1r,3R)-3-((4-(3-(3-amino-6-(2-hydroxyphenyl)pyridazin-4-yl)-3,8-diazabicyclo[3.2.1]octan-8-yl)pyridin-2-yl)oxy)cyclobutoxy)piperidin-1-yl)cyclobutoxy)isoxazol-5-yl)-3-methylbutanoyl)-4-hydroxy-N-((S)-1-(4-(4-methylthiazol-5-yl)phenyl)ethyl)pyrrolidine-2-carboxamide] | – | – | Dmax [3]: > 75%; DC50 (degradation of BRM, read-out: BRM DC50): < 2.5 nM
Cc1ncsc1-c1ccc([C@H](C)NC(=O)[C@@H]2C[C@@H](O)CN2C(=O)[C@@H](c2cc(N3CCC(CN4CCC(Oc5cc(N6C7CCC6CN(c6cc(-c8ccccc8O)nnc6N)C7)ccn5)CC4)CC3)no2)C(C)C)cc1 [compound 602, (2S,4R)-1-((2R)-2-(3-(4-((4-((4-(3-(3-amino-6-(2-hydroxyphenyl)pyridazin-4-yl)-3,8-diazabicyclo[3.2.1]octan-8-yl)pyridin-2-yl)oxy)piperidin-1-yl)methyl)piperidin-1-yl)isoxazol-5-yl)-3-methylbutanoyl)-4-hydroxy-N-((S)-1-(4-(4-methylthiazol-5-yl)phenyl)ethyl)pyrrolidine-2-carboxamide] | – | – | Dmax (BRM degradation, SW1573 cells, Table 2D, read-out: **Dmax (%) (% degraded)): > 75%; DC50 [4]: < 2.5 nM
Cc1ncsc1-c1ccc(CNC(=O)[C@@H]2C[C@@H](O)CN2C(=O)[C@@H](c2cc(OCCOCCOCCOCCOCCn3cc(-c4cc(-c5ccccc5O)nnc4N)cn3)no2)C(C)C)cc1 [compound 19, (2S,4R)-1-[(2R)-2-[3-[(14-[4-[3-amino-6-(2-hydroxyphenyl)pyridazin-4-yl]-1H-pyrazol-1-yl]-3,6,9,12-tetraoxatetradecan-1-yl)oxy]-1,2-oxazol-5-yl]-3-methylbutanoyl]-4-hydroxy-N-[[4-(4-methyl-1,3-thiazol-5-yl)phenyl]methyl]pyrrolidine-2-carboxamide] | 10 to 30 | > 75 | –
Cc1ncsc1-c1ccc([C@H](C)NC(=O)[C@@H]2C[C@@H](O)CN2C(=O)[C@H](c2cc(C#CCN3CCC(OC4CC(Oc5cc(N6C7CC[C@@H]6CN(c6cc(-c8ccccc8O)nnc6N)C7)ccn5)C4)CC3)no2)C(C)C)cc1 (stereo partly drawn) [compound 379, (2S,4R)-1-((2S)-2-(3-(3-(4-((1r,3S)-3-((4-(3-(3-amino-6-(2-hydroxyphenyl)pyridazin-4-yl)-3,8-diazabicyclo[3.2.1]octan-8-yl)pyridin-2-yl)oxy)cyclobutoxy)piperidin-1-yl)prop-1-yn-1-yl)isoxazol-5-yl)-3-methylbutanoyl)-4-hydroxy-N-((S)-1-(4-(4-methylthiazol-5-yl)phenyl)ethyl)pyrrolidine-2-carboxamide] | – | – | DC50 (target protein degradation, read-out: BRM DC50): > 30 nM
Cc1ncsc1-c1ccc([C@H](C)NC(=O)[C@@H]2C[C@@H](O)CN2C(=O)[C@@H](c2cc(N3CCC(CN4CCC(O[C@H]5C[C@H](C#C[C@@H](C)n6cc(-c7cc(-c8ccccc8O)nnc7N)cn6)C5)CC4)CC3)no2)C(C)C)cc1 [compound 496, (2S,4R)-1-((R)-2-(3-(4-((4-((1R,3r)-3-((R)-3-(4-(3-amino-6-(2-hydroxyphenyl)pyridazin-4-yl)-1H-pyrazol-1-yl)but-1-yn-1-yl)cyclobutoxy)piperidin-1-yl)methyl)piperidin-1-yl)isoxazol-5-yl)-3-methylbutanoyl)-4-hydroxy-N-((S)-1-(4-(4-methylthiazol-5-yl)phenyl)ethyl)pyrrolidine-2-carboxamide] | – | – | DC50 (BRM degradation, read-out: BRM DC50): < 2.5 nM; Dmax [3]: > 75%
Cc1ncsc1-c1ccc([C@H](C)NC(=O)[C@@H]2C[C@@H](O)CN2C(=O)[C@H](c2cc(N3CCC(N4CCC(O[C@H]5C[C@H](Oc6cc(N7C8CCC7CN(c7cc(-c9ccccc9O)nnc7N)C8)ccn6)C5)CC4)CC3)no2)C(C)C)cc1 [compound 684, (2S,4R)-1-((2S)-2-(3-(4-((1r,3S)-3-((4-(3-(3-amino-6-(2-hydroxyphenyl)pyridazin-4-yl)-3,8-diazabicyclo[3.2.1]octan-8-yl)pyridin-2-yl)oxy)cyclobutoxy)-[1,4'-bipiperidin]-1'-yl)isoxazol-5-yl)-3-methylbutanoyl)-4-hydroxy-N-((S)-1-(4-(4-methylthiazol-5-yl)phenyl)ethyl)pyrrolidine-2-carboxamide] | 10 to 30 | – | Dmax (BRM degradation, SW1573 cells, read-out: Dmax (% degraded)): 50 to 75%
Cc1ncsc1-c1ccc(CNC(=O)[C@@H]2C[C@@H](O)CN2C(=O)[C@@H](NC(=O)COCCOCCOCCOCCOCCOCCOc2cc(N3C4CCC3CN(c3cc(-c5ccccc5O)nnc3N)C4)ccn2)C(C)(C)C)cc1 [compound 8, (2S,4R)-1-((2S)-23-((4-(3-(3-amino-6-(2-hydroxyphenyl)pyridazin-4-yl)-3,8-diazabicyclo[3.2.1]octan-8-yl)pyridin-2-yl)oxy)-2-(tert-butyl)-4-oxo-6,9,12,15,18,21-hexaoxa-3-azatricosanoyl)-4-hydroxy-N-(4-(4-methylthiazol-5-yl)benzyl)pyrrolidine-2-carboxamide] | 10 to 30 | > 75 | –
Cc1ncsc1-c1ccc(C(CCCP(=O)(O)O)NC(=O)[C@@H]2C[C@@H](O)CN2C(=O)[C@@H](c2cc(OCCN3CCC(O[C@H]4C[C@H](Oc5cc(N6C7CCC6CN(c6cc(-c8ccccc8O)nnc6N)C7)ccn5)C4)CC3)no2)C(C)C)cc1 (stereo partly drawn) [compound 702, (4-((2S,4R)-1-((2R)-2-(3-(2-(4-((1r,3R)-3-((4-(3-(3-amino-6-(2-hydroxyphenyl)pyridazin-4-yl)-3,8-diazabicyclo[3.2.1]octan-8-yl)pyridin-2-yl)oxy)cyclobutoxy)piperidin-1-yl)ethoxy)isoxazol-5-yl)-3-methylbutanoyl)-4-hydroxypyrrolidine-2-carboxamido)-4-(4-(4-methylthiazol-5-yl)phenyl)butyl)phosphonic acid] | – | – | DC50 (BRM degradation, SW1573 cells): > 30 nM
Cc1cc([C@H](C(=O)N2C[C@H](O)C[C@H]2C(=O)N[C@@H](C)c2ccc(-c3scnc3C)cc2)[C@H](C)COCCCn2cc(-c3cc(-c4ccccc4O)nnc3N)cn2)on1 [compound 560, (2S,4R)-1-((2R,3S)-4-(3-(4-(3-amino-6-(2-hydroxyphenyl)pyridazin-4-yl)-1H-pyrazol-1-yl)propoxy)-3-methyl-2-(3-methylisoxazol-5-yl)butanoyl)-4-hydroxy-N-((S)-1-(4-(4-methylthiazol-5-yl)phenyl)ethyl)pyrrolidine-2-carboxamide] | – | – | DC50 [4]: > 30 nM
Cc1ncsc1-c1ccc([C@H](C)NC(=O)[C@@H]2C[C@@H](O)CN2C(=O)[C@@H](c2cc(OCCN3CCC(O[C@H]4C[C@H](Oc5cc(N6C7CCC6CN(c6cc(-c8ccccc8O)nnc6N)C7)ccn5)C4)CC3)no2)C(C)C)cc1F [compound 253, (2S,4R)-1-((2R)-2-(3-(2-(4-((1r,3R)-3-((4-(3-(3-amino-6-(2-hydroxyphenyl)pyridazin-4-yl)-3,8-diazabicyclo[3.2.1]octan-8-yl)pyridin-2-yl)oxy)cyclobutoxy)piperidin-1-yl)ethoxy)isoxazol-5-yl)-3-methylbutanoyl)-N-((S)-1-(3-fluoro-4-(4-methylthiazol-5-yl)phenyl)ethyl)-4-hydroxypyrrolidine-2-carboxamide] | < 2.5 | – | Dmax (BRM degradation, SW1573 cells, tested at the top concentration of between 0.3 and 10 μM, read-out: Dmax (%) (% degraded)): > 75%
Cc1ncsc1-c1ccc(CNC(=O)[C@@H]2C[C@@H](O)CN2C(=O)[C@@H](c2cc(OCCN3CCN(CCOc4cc(N5C6CCC5CN(c5cc(-c7ccccc7O)nnc5N)C6)ccn4)CC3)no2)C(C)C)cc1 [compound 42, (2S,4R)-1-[(2R)-2-[3-[2-(4-[2-[(4-[3-[3-amino-6-(2-hydroxyphenyl)pyridazin-4-yl]-3,8-diazabicyclo[3.2.1]octan-8-yl]pyridin-2-yl)oxy]ethyl]piperazin-1-yl)ethoxy]-1,2-oxazol-5-yl]-3-methylbutanoyl]-4-hydroxy-N-[[4-(4-methyl-1,3-thiazol-5-yl)phenyl]methyl]pyrrolidine-2-carboxamide] | < 2.5 | > 75 | –
